# Columns and labels:
# [1] = Evaluation of conversion rate to active form in buffer solution (Experimental Example 1); format: physicochemical; conditions: for Production rate of Alvocidib / Residual rate: 25 umol/L in buffer solution; for Stability in buffer solution at pH 5: pH 5, 37° C., up to 2 or 3 hours; for Conversion to Alvocidib at pH 7.4: pH 7.4, 37° C., up to 3 hours
# Method in brief: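 Compounds at 25 umol/L were held at 37 °C in 50 mM citrate (pH 5.0, 5.5) or phosphate (pH 6.0–7.4) buffers. Remaining compound and Alvocidib formed were quantified by HPLC at 0, 0.5, 1, 2 and 3 h.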
# [2] = Pharmacokinetic test, intravenous solution and liposome formulations in mice (Experimental Example 6); format: in vivo; conditions: female BALB/c mice
# Description: This was used as a solution formulation.
# This was used as a liposome formulation.
# Hydrogenated soybean phosphatidylcholine (COATSOME NC-21E, manufactured by NOF CORPORATION, 3.238 g), cholesterol (manufactured by Sigma, 1.160 g) and 1,2-disteroyl-rac-glycero-3-methylpolyoxyethylen 2000 (SUNBRIGHT GS-020, manufactured by NOF CORPORATION, 0.983 g) were dissolved in tert-butyl alcohol (300 mL) warmed to 65° C. The solution was placed in an eggplant flask and frozen in a dry ice-acetone bath, and then the tert-butyl alcohol was removed by evaporation under reduced pressure to give a lipid mixture.
# To the above lipid mixture was added to a 250 mM ammonium sulfate solution (100 mL), and the mixture was warmed to 65° C., and dispersed by a homogenizer (ULTRA-TURRAX, manufactured by IKA) to give a crude liposome dispersion. […] The solution was filtered through a 0.22 μm membrane filter to adjust the total lipid concentration to 75 mM (75 μmol/mL). […] The solution was adjusted to pH 5 to 6 with 1 mol/L aqueous sodium hydroxide solution, warmed in a 65° C. water bath for 3 minutes, and ice-cooled. The liposome outer solution was replaced with 10 mM tartrate buffer solution/10% sucrose solution (pH 4) using a dialysis cassette (Slide-A-Lyzer G2 Dialysis Cassettes 20K MWCO, manufactured by Thermo Scientific), followed by filtration through a 0.22 μm membrane filter to adjust the concentration.
# The solution formulation or liposome formulation was instantly administered intravenously to 7-week-old female BALB/c mice, and the blood was collected over time from the jugular vein without anesthesia up to 24 hours after administration for the solution formulation administration group and up to 72 hours after administration for the liposome formulation administration group. […] The plasma sample was centrifuged, and the concentrations of the test compound and Alvocidib in the obtained supernatant were determined by LC-MS/MS.
structure (smiles),measurement,setting,value
"CCN(C[C@@H]1CCCCN1)C(=O)Oc1cc(O)c2c(=O)cc(-c3ccccc3Cl)oc2c1[C@H]1CCN(C)C[C@H]1O [Example 1, 2-(2-chlorophenyl)-5-hydroxy-8-[(3S,4R)-3-hydroxy-1-methylpiperidin-4-yl]-4-oxo-4H-1-benzopyran-7-yl ethyl{[(2S)-piperidin-2-yl]methyl}carbamate ditrifluoroacetate]",Efficiency of conversion to Alvocidib,"[1]; buffer solution, 37° C.",higher efficiency
same,Production rate of Alvocidib,"[1]; pH5.0, 0 hr, 37° C.",0.0%
same,Residual rate,"[1]; pH5.0, 0 hr, 37° C.",98.7%
same,Stability in buffer solution at pH 5,[1],stable
same,Production rate of Alvocidib,"[1]; pH5.0, 0.5 hr, 37° C.",0.4%
same,Residual rate,"[1]; pH5.0, 0.5 hr, 37° C.",98.4%
same,Production rate of Alvocidib,"[1]; pH5.0, 1 hr, 37° C.",0.7%
same,Residual rate,"[1]; pH5.0, 1 hr, 37° C.",98.1%
same,Production rate of Alvocidib,"[1]; pH5.0, 2 hr, 37° C.",1.3%
same,Residual rate,"[1]; pH5.0, 2 hr, 37° C.",97.4%
same,Production rate of Alvocidib,"[1]; pH5.0, 3 hr, 37° C.",1.8%
same,Residual rate,"[1]; pH5.0, 3 hr, 37° C.",96.9%
same,Production rate of Alvocidib,"[1]; pH5.5, 0 hr, 37° C.",0.0%
same,Residual rate,"[1]; pH5.5, 0 hr, 37° C.",98.8%
same,Production rate of Alvocidib,"[1]; pH5.5, 0.5 hr, 37° C.",1.0%
same,Residual rate,"[1]; pH5.5, 0.5 hr, 37° C.",97.3%
same,Production rate of Alvocidib,"[1]; pH5.5, 1 hr, 37° C.",1.8%
same,Residual rate,"[1]; pH5.5, 1 hr, 37° C.",97.1%
same,Production rate of Alvocidib,"[1]; pH5.5, 2 hr, 37° C.",3.5%
same,Residual rate,"[1]; pH5.5, 2 hr, 37° C.",95.3%
same,Production rate of Alvocidib,"[1]; pH5.5, 3 hr, 37° C.",5.1%
same,Residual rate,"[1]; pH5.5, 3 hr, 37° C.",93.8%
same,Production rate of Alvocidib,"[1]; pH6.0, 0 hr, 37° C.",0.0%
same,Residual rate,"[1]; pH6.0, 0 hr, 37° C.",99.2%
same,Production rate of Alvocidib,"[1]; pH6.0, 0.5 hr, 37° C.",3.3%
same,Residual rate,"[1]; pH6.0, 0.5 hr, 37° C.",95.5%
same,Production rate of Alvocidib,"[1]; pH6.0, 1 hr, 37° C.",6.3%
same,Residual rate,"[1]; pH6.0, 1 hr, 37° C.",92.5%
same,Production rate of Alvocidib,"[1]; pH6.0, 2 hr, 37° C.",12.0%
same,Residual rate,"[1]; pH6.0, 2 hr, 37° C.",86.8%
same,Production rate of Alvocidib,"[1]; pH6.0, 3 hr, 37° C.",17.0%
same,Residual rate,"[1]; pH6.0, 3 hr, 37° C.",81.8%
same,Production rate of Alvocidib,"[1]; pH6.5, 0 hr, 37° C.",0.0%
same,Residual rate,"[1]; pH6.5, 0 hr, 37° C.",98.4%
same,Production rate of Alvocidib,"[1]; pH6.5, 0.5 hr, 37° C.",8.7%
same,Residual rate,"[1]; pH6.5, 0.5 hr, 37° C.",90.2%
same,Production rate of Alvocidib,"[1]; pH6.5, 1 hr, 37° C.",16.4%
same,Residual rate,"[1]; pH6.5, 1 hr, 37° C.",82.0%
same,Production rate of Alvocidib,"[1]; pH6.5, 2 hr, 37° C.",30.1%
same,Residual rate,"[1]; pH6.5, 2 hr, 37° C.",68.4%
same,Production rate of Alvocidib,"[1]; pH6.5, 3 hr, 37° C.",40.7%
same,Residual rate,"[1]; pH6.5, 3 hr, 37° C.",57.7%
same,Production rate of Alvocidib,"[1]; pH7.0, 0 hr, 37° C.",0.0%
same,Residual rate,"[1]; pH7.0, 0 hr, 37° C.",98.9%
same,Production rate of Alvocidib,"[1]; pH7.0, 0.5 hr, 37° C.",23.2%
same,Residual rate,"[1]; pH7.0, 0.5 hr, 37° C.",75.0%
same,Production rate of Alvocidib,"[1]; pH7.0, 1 hr, 37° C.",41.1%
same,Residual rate,"[1]; pH7.0, 1 hr, 37° C.",57.8%
same,Production rate of Alvocidib,"[1]; pH7.0, 2 hr, 37° C.",65.3%
same,Residual rate,"[1]; pH7.0, 2 hr, 37° C.",33.5%
same,Production rate of Alvocidib,"[1]; pH7.0, 3 hr, 37° C.",77.1%
same,Residual rate,"[1]; pH7.0, 3 hr, 37° C.",21.0%
same,Production rate of Alvocidib,"[1]; pH7.4, 0 hr, 37° C.",0.4%
same,Residual rate,"[1]; pH7.4, 0 hr, 37° C.",98.5%
same,Conversion to Alvocidib at pH 7.4,[1],rapidly converted to Alvocidib
same,Production rate of Alvocidib,"[1]; pH7.4, 0.5 hr, 37° C.",44.9%
same,Residual rate,"[1]; pH7.4, 0.5 hr, 37° C.",53.8%
same,Production rate of Alvocidib,"[1]; pH7.4, 1 hr, 37° C.",69.3%
same,Residual rate,"[1]; pH7.4, 1 hr, 37° C.",29.3%
same,Production rate of Alvocidib,"[1]; pH7.4, 2 hr, 37° C.",87.6%
same,Residual rate,"[1]; pH7.4, 2 hr, 37° C.",11.3%
same,Production rate of Alvocidib,"[1]; pH7.4, 3 hr, 37° C.",91.4%
same,Residual rate,"[1]; pH7.4, 3 hr, 37° C.",6.9%
same,Blood retention of liposome formulation compared with the corresponding solution formulation,[2],higher blood retention
"CCN(CCC1CCCCN1)C(=O)Oc1cc(O)c2c(=O)cc(-c3ccccc3Cl)oc2c1[C@H]1CCN(C)C[C@H]1O (stereo partly drawn) [Example 16, 2-(2-chlorophenyl)-5-hydroxy-8-[(3S,4R)-3-hydroxy-1-methylpiperidin-4-yl]-4-oxo-4H-1-benzopyran-7-yl ethyl[2-(piperidin-2-yl)ethyl]carbamate]",Production rate of Alvocidib,"[1]; pH5.0, 0 hr, 37° C.",0.0%
same,Residual rate,"[1]; pH5.0, 0 hr, 37° C.",84.3%
same,Stability in buffer solution at pH 5,[1],stable
same,Production rate of Alvocidib,"[1]; pH5.0, 0.5 hr, 37° C.",0.0%
same,Residual rate,"[1]; pH5.0, 0.5 hr, 37° C.",84.9%
same,Production rate of Alvocidib,"[1]; pH5.0, 1 hr, 37° C.",0.0%
same,Residual rate,"[1]; pH5.0, 1 hr, 37° C.",86.4%
same,Production rate of Alvocidib,"[1]; pH5.0, 2 hr, 37° C.",0.0%
same,Residual rate,"[1]; pH5.0, 2 hr, 37° C.",86.1%
same,Production rate of Alvocidib,"[1]; pH5.0, 3 hr, 37° C.",0.0%
same,Residual rate,"[1]; pH5.0, 3 hr, 37° C.",86.1%
same,Production rate of Alvocidib,"[1]; pH5.5, 0 hr, 37° C.",0.0%
same,Residual rate,"[1]; pH5.5, 0 hr, 37° C.",84.9%
same,Production rate of Alvocidib,"[1]; pH5.5, 0.5 hr, 37° C.",0.0%
same,Residual rate,"[1]; pH5.5, 0.5 hr, 37° C.",85.8%
same,Production rate of Alvocidib,"[1]; pH5.5, 1 hr, 37° C.",0.0%
same,Residual rate,"[1]; pH5.5, 1 hr, 37° C.",86.3%
same,Production rate of Alvocidib,"[1]; pH5.5, 2 hr, 37° C.",0.0%
same,Residual rate,"[1]; pH5.5, 2 hr, 37° C.",85.7%
same,Production rate of Alvocidib,"[1]; pH5.5, 3 hr, 37° C.",0.0%
same,Residual rate,"[1]; pH5.5, 3 hr, 37° C.",86.6%
same,Production rate of Alvocidib,"[1]; pH6.0, 0 hr, 37° C.",0.0%
same,Residual rate,"[1]; pH6.0, 0 hr, 37° C.",85.3%
same,Production rate of Alvocidib,"[1]; pH6.0, 0.5 hr, 37° C.",0.0%
same,Residual rate,"[1]; pH6.0, 0.5 hr, 37° C.",84.3%
same,Production rate of Alvocidib,"[1]; pH6.0, 1 hr, 37° C.",12.8%
same,Residual rate,"[1]; pH6.0, 1 hr, 37° C.",71.7%
same,Production rate of Alvocidib,"[1]; pH6.0, 2 hr, 37° C.",21.6%
same,Residual rate,"[1]; pH6.0, 2 hr, 37° C.",63.0%
same,Production rate of Alvocidib,"[1]; pH6.0, 3 hr, 37° C.",29.3%
same,Residual rate,"[1]; pH6.0, 3 hr, 37° C.",55.6%
same,Production rate of Alvocidib,"[1]; pH6.5, 0 hr, 37° C.",0.0%
same,Residual rate,"[1]; pH6.5, 0 hr, 37° C.",86.0%
same,Production rate of Alvocidib,"[1]; pH6.5, 0.5 hr, 37° C.",16.4%
same,Residual rate,"[1]; pH6.5, 0.5 hr, 37° C.",67.6%
same,Production rate of Alvocidib,"[1]; pH6.5, 1 hr, 37° C.",25.3%
same,Residual rate,"[1]; pH6.5, 1 hr, 37° C.",61.4%
same,Production rate of Alvocidib,"[1]; pH6.5, 2 hr, 37° C.",47.1%
same,Residual rate,"[1]; pH6.5, 2 hr, 37° C.",37.4%
same,Production rate of Alvocidib,"[1]; pH6.5, 3 hr, 37° C.",51.5%
same,Residual rate,"[1]; pH6.5, 3 hr, 37° C.",34.9%
same,Production rate of Alvocidib,"[1]; pH7.0, 0 hr, 37° C.",0.0%
same,Residual rate,"[1]; pH7.0, 0 hr, 37° C.",86.2%
same,Production rate of Alvocidib,"[1]; pH7.0, 0.5 hr, 37° C.",30.5%
same,Residual rate,"[1]; pH7.0, 0.5 hr, 37° C.",54.8%
same,Production rate of Alvocidib,"[1]; pH7.0, 1 hr, 37° C.",50.2%
same,Residual rate,"[1]; pH7.0, 1 hr, 37° C.",35.7%
same,Production rate of Alvocidib,"[1]; pH7.0, 2 hr, 37° C.",68.6%
same,Residual rate,"[1]; pH7.0, 2 hr, 37° C.",16.9%
same,Production rate of Alvocidib,"[1]; pH7.0, 3 hr, 37° C.",78.2%
same,Residual rate,"[1]; pH7.0, 3 hr, 37° C.",7.7%
same,Production rate of Alvocidib,"[1]; pH7.4, 0 hr, 37° C.",0.9%
same,Residual rate,"[1]; pH7.4, 0 hr, 37° C.",85.3%
same,Conversion to Alvocidib at pH 7.4,[1],rapidly converted to Alvocidib
same,Production rate of Alvocidib,"[1]; pH7.4, 0.5 hr, 37° C.",59.0%
same,Residual rate,"[1]; pH7.4, 0.5 hr, 37° C.",23.2%
same,Production rate of Alvocidib,"[1]; pH7.4, 1 hr, 37° C.",77.8%
same,Residual rate,"[1]; pH7.4, 1 hr, 37° C.",5.9%
same,Production rate of Alvocidib,"[1]; pH7.4, 2 hr, 37° C.",82.1%
same,Residual rate,"[1]; pH7.4, 2 hr, 37° C.",2.2%
same,Production rate of Alvocidib,"[1]; pH7.4, 3 hr, 37° C.",85.8%
same,Residual rate,"[1]; pH7.4, 3 hr, 37° C.",0.0%

# Source: patent US12617779B2, “Self degradation-type CDK9 inhibitor prodrug and liposome encapsulating same” (Sumitomo Pharma Co., Ltd., priority 2021, dated 2026)
